Source: the supplement of paper PMC11208160

Assay: recombinant barcode read abundance after kanamycin selection (control-corrected) (log10(CPM+1)); higher = more efficient recombination; sequences stand for … in AGTGCAGAGAAAATCGGCCAGTTTTCTCTGCCTGCAGTCCGCATGCCGT…AGATTTATGCAGCGGACTGCCTTTCTCCCAAAGTGATAAACCGGACAGTATCATGGACCGGTTTTCCCGGTAATCCGTATTTGCAAGGTTGGTTTCACT; site = the 11-nt target
In short: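 Each value is log10(CPM+1). It describes recombination efficiency, taken as averaged, control-corrected counts per million of barcodes at recombinant junctions. The pooled E. coli library paired targets with IS621 bridge RNA target-binding loops, was co-electroporated with a donor plasmid, and was plated twice on chloramphenicol/ampicillin LB agar (control) and twice on chloramphenicol/ampicillin/kanamycin containing 0.1 mM IPTG.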
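Also: IS621 recombinase and bridge RNA in Escherichia coli cells.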

Sequence	recombinant barcode read abundance (log10)
GACTATTCTTGGGTTCTAACCTGTTGCCT (site GAATATTCTAG)	0.0378
GACTATTCTTGGGTTCTAACCTGTTGCCT (site GACTATTCTAG)	0.212
GACTATTCTTGGGTTCTAACCTGTTGCCT (site GAGTATTCTAG)	0.106
GACTATTCTTGGGTTCTAACCTGTTGCCT (site GATTATTCTAG)	0.178
GACTCTACTTGGGTTCTAACCTGTTGCTT (site GAATCTACTAA)	0.0131
GACTCTACTTGGGTTCTAACCTGTTGCTT (site GACTCTACTAA)	0.65
GACTCTACTTGGGTTCTAACCTGTTGCTT (site GAGTCTACTAA)	0.068
GACTCTACTTGGGTTCTAACCTGTTGCTT (site GATTCTACTAA)	0.0521
GACTCTCCTTGGGTTCTAACCTGTTGCAT (site GACTCTCCTAA)	0.00987
GACTCTCCTTGGGTTCTAACCTGTTGCAT (site GACTCTCCTAC)	1.45
GACTCTCCTTGGGTTCTAACCTGTTGCAT (site GACTCTCCTAG)	0.186
GACTCTCCTTGGGTTCTAACCTGTTGCAT (site GACTCTCCTAT)	0.387
GACTCTCCTTGGGTTCTAACCTGTTGCGT (site GACTCTCCTAA)	0.103
GACTCTCCTTGGGTTCTAACCTGTTGCGT (site GACTCTCCTAC)	1.75
GACTCTCCTTGGGTTCTAACCTGTTGCGT (site GACTCTCCTAG)	0
GACTCTCCTTGGGTTCTAACCTGTTGCGT (site GACTCTCCTAT)	0.321
GACTGCCCTTGGGTTCTAACCTGTTGCCT (site GACTGCCCTAG)	0.166
GACTGCCCTTGGGTTCTAACCTGTTGCCT (site GCCTGCCCTAG)	0.164
GACTGCCCTTGGGTTCTAACCTGTTGCCT (site GGCTGCCCTAG)	0.0269
GACTGCCCTTGGGTTCTAACCTGTTGCCT (site GTCTGCCCTAG)	0.129
GACTGGCCTTGGGTTCTAACCTGTTGCTT (site GACTGGCCTAA)	0.389
GACTGGCCTTGGGTTCTAACCTGTTGCTT (site GACTGGGCTCA)	0.154

Sequence	recombinant barcode read abundance (log10)
GACTTGACTTGGGTTCTAACCTGTTGCCT (site GACTTGACTAG)	1.13
GACTTGACTTGGGTTCTAACCTGTTGCCT (site GACTTGCCTAG)	0.0736
GACTTGACTTGGGTTCTAACCTGTTGCCT (site GACTTGGCTAG)	0.171
GACTTGACTTGGGTTCTAACCTGTTGCCT (site GACTTGTCTAG)	0.0657
GACTTGTCTTGGGTTCTAACCTGTTGCCT (site GACTTGACTAG)	0.0686
GACTTGTCTTGGGTTCTAACCTGTTGCCT (site GACTTGCCTAG)	0.0458
GACTTGTCTTGGGTTCTAACCTGTTGCCT (site GACTTGGCTAG)	0.0443
GACTTGTCTTGGGTTCTAACCTGTTGCCT (site GACTTGTCTAG)	1.41
GACTTTCCTTGGGTTCTAACCTGTTGCAT (site GACTTACCTAT)	0.01
GACTTTCCTTGGGTTCTAACCTGTTGCAT (site GACTTCCCTAT)	0.272
GACTTTCCTTGGGTTCTAACCTGTTGCAT (site GACTTGCCTAT)	0.0607
GACTTTCCTTGGGTTCTAACCTGTTGCAT (site GACTTTCCTAT)	0.101
GAGAACACTTGGGTTCTAACCTGTTGCCT (site AAGAACACTAG)	1.09
GAGAACACTTGGGTTCTAACCTGTTGCCT (site CAGAACACTAG)	0.439
GAGAACACTTGGGTTCTAACCTGTTGCCT (site GAGAACACTAG)	2.01
GAGAACACTTGGGTTCTAACCTGTTGCCT (site TAGAACACTAG)	0.852
GAGAAGCCTTGGGTTCTAACCTGTTGCCT (site AAGAAGCCTAG)	1.17
GAGAAGCCTTGGGTTCTAACCTGTTGCCT (site CAGAAGCCTAG)	0.409
GAGAAGCCTTGGGTTCTAACCTGTTGCCT (site GAGAAGCCTAG)	2.12
GAGAAGCCTTGGGTTCTAACCTGTTGCCT (site TAGAAGCCTAG)	0.639
GAGAGAGCTTGGGTTCTAACCTGTTGCAT (site GAGAGAGCTAT)	1.41
GAGAGAGCTTGGGTTCTAACCTGTTGCAT (site GAGCGAGCTAT)	0.193

Sequence	recombinant barcode read abundance (log10)
GAGAGAGCTTGGGTTCTAACCTGTTGCAT (site GAGGGAGCTAT)	0.0621
GAGAGAGCTTGGGTTCTAACCTGTTGCAT (site GAGTGAGCTAT)	0.14
GAGAGGTCTTGGGTTCTAACCTGTTGCCT (site GAGAGGTCTAA)	0.298
GAGAGGTCTTGGGTTCTAACCTGTTGCCT (site GAGAGGTCTAC)	0.0681
GAGAGGTCTTGGGTTCTAACCTGTTGCCT (site GAGAGGTCTAG)	1.56
GAGAGGTCTTGGGTTCTAACCTGTTGCCT (site GAGAGGTCTAT)	0.203
GAGATGTCTTGGGTTCTAACCTGTTGCCT (site GAGATGTCTAG)	2.43
GAGATGTCTTGGGTTCTAACCTGTTGCCT (site GCGATGTCTAG)	0.147
GAGATGTCTTGGGTTCTAACCTGTTGCCT (site GGGATGTCTAG)	0.266
GAGATGTCTTGGGTTCTAACCTGTTGCCT (site GTGATGTCTAG)	0.577
GAGCACCCTTGGGTTCTAACCTGTTGCCA (site GAGCACCCTTG)	1.77
GAGCACCCTTGGGTTCTAACCTGTTGCCA (site GAGCTCACTTG)	0.0464
GAGCAGTCTTGGGTTCTAACCTGTTGCCT (site GAGAAGTCTAG)	0
GAGCAGTCTTGGGTTCTAACCTGTTGCCT (site GAGCAGTCTAG)	2.4
GAGCAGTCTTGGGTTCTAACCTGTTGCCT (site GAGGAGTCTAG)	0.117
GAGCAGTCTTGGGTTCTAACCTGTTGCCT (site GAGTAGTCTAG)	0.214
GAGCCACCTTGGGTTCTAACCTGTTGCTG (site GAGCCACCTCA)	1.58
GAGCCACCTTGGGTTCTAACCTGTTGCTG (site GAGCCGCCTCG)	0.104
GAGCCGACTTGGGTTCTAACCTGTTGCAG (site GAGCCGACTCT)	2.25
GAGCCGACTTGGGTTCTAACCTGTTGCAG (site TAGCCGGCTCT)	0.0779
GAGCCGACTTGGGTTCTAACCTGTTGCCT (site GAGCAGACTAG)	0.288
GAGCCGACTTGGGTTCTAACCTGTTGCCT (site GAGCCGACTAG)	1.56
